30 molecules from paper PMC5681660, “Reduced hepatitis B and D viral entry using clinically applied drugs as novel inhibitors of the bile acid transporter NTCP” (Scientific Reports, 2017) can be followed below.

Experiment [1] addresses T1, human NTCP (Homo sapiens, UniProt Q14973).
T1 sequence (Q14973 1-349): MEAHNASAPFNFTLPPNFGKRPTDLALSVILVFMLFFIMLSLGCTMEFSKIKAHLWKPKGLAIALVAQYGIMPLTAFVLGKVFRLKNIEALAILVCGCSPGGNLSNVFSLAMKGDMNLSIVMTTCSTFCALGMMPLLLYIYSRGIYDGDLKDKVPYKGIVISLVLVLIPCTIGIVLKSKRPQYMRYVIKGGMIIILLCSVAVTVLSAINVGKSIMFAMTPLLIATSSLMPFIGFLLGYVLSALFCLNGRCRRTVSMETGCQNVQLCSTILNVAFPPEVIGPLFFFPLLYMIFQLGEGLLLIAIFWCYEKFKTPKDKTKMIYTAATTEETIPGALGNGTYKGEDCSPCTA
The experiment can be described thus: Screening fluorescent competitive Myrcludex B-FITC binding assay (96-well, 10 µM drug).

Experiment [2] addresses T1, human NTCP. Briefly: Screening taurocholate uptake assay (96-well, [14C]taurocholate, 10 µM drug).
Setting [3] is: Prestwick library screen, Myrcludex B-FITC binding, 10 µM drug.
Where [4] appears, read: Prestwick library screen, taurocholate uptake, 10 µM drug.
The mark [5] stands for this setting: ranking score beside the functional and binding assay B-scores of the screen.
The mark [6] stands for this setting: Prestwick library screen, 10 µM drug, B-score of Myrcludex B-FITC binding.
Setting [7] is: Prestwick library screen, 10 µM drug, B-score of taurocholate uptake.
[8] abbreviates: combined ranking from functional and binding assay B-scores.
Setting [9] is: screen, 10 µM drug, Myrcludex B-FITC binding.
Setting [10] is: combined ranking from functional and binding screening assays.
Where [11] appears, read: screen, 10 µM drug, taurocholate uptake.

Structures can show the parent of a compound that is named as a salt. Where two headings read alike, the source gives them in different places.

For the molecule `O=c1[nH]c(=O)n([C@H]2C[C@H](O)[C@@H](CO)O2)cc1F` [Floxuridine], in experiment [1] (setting [3]), the B-score binding assay is reported as -0.009. Also, the B-score functional assay in experiment [2] (setting [4]) is 0.659. Moreover, the Ranking score in experiment [2] (setting [5]) stood at 772.114.

In turn, `COc1ccnc(C[S+]([O-])c2nc3ccc(OC(F)F)cc3[nH]2)c1OC` (stereo not drawn) [Pantoprazole sodium] gave a B-score binding assay in experiment [1] of 0.377. Further, in experiment [2], the B-score functional assay was 0.443 and the Ranking score is on record as 878.449.

With `COc1cc(NS(=O)(=O)c2ccc(N)cc2)ncn1` [Sulfamonomethoxine], the B-score binding assay in experiment [1] (setting [3]) is listed as 0.362. The B-score functional assay in experiment [2] (setting [4]) is listed as -0.097. The molecule further came in with a Ranking score in experiment [2] (setting [5]) of 680.363.

`C1N2CN3CN1CN(C2)C3` [Methenamine] showed a B-score binding assay in experiment [1] (setting [6]) of 0.067. The B-score functional assay in experiment [2] (setting [7]) is 1.472. Moreover, in experiment [2] (setting [8]), the Ranking score was found to be 906.386.

As for `C[C@@H]1CC[C@H]2[C@@H](C)C(=O)O[C@@H]3O[C@@]4(C)CC[C@@H]1[C@]32OO4` [Artemisinin], the B-score binding assay in experiment [1] (setting [3]) is reported as -0.138. The B-score functional assay in experiment [2] (setting [4]) stood at 0.234. In experiment [2] (setting [5]), this molecule gave a Ranking score of 655.672.

In experiment [1] (setting [6]), `Cl.Clc1ccc(C(OCCN2CCCCC2)c2ccccc2)cc1` (stereo not drawn) [Cloperastine hydrochloride] showed a B-score binding assay of 0.356. The molecule also registered a B-score functional assay in experiment [2] (setting [7]) of 2.21. Further, in experiment [2] (setting [8]), the Ranking score came out at 1021.61.

Consider `CCN1CCCC1CNC(=O)c1cc(S(N)(=O)=O)ccc1OC` (stereo not drawn) [Sulpiride], for which, in experiment [1] (setting [3]), the B-score binding assay amounted to 0.598. Besides, in experiment [2] (setting [4]), the B-score functional assay worked out at 0.071. Moreover, in experiment [2] (setting [5]), the Ranking score turned out to be 822.943.

For the molecule `CC(=O)c1ccc(S(=O)(=O)NC(=O)NC2CCCCC2)cc1` [Acetohexamide], the B-score binding assay in experiment [1] (setting [6]) is listed as 1.192. For the same molecule, the B-score functional assay in experiment [2] (setting [7]) is on record as 0.057. Also, the Ranking score in experiment [2] (setting [8]) came out at 875.07.

For `CCCCC(=O)O[C@H]1CC[C@H]2[C@@H]3CCc4cc(O)ccc4[C@H]3CC[C@]12C` [Estradiol Valerate], the B-score binding assay in experiment [1] (setting [3]) amounted to 1.969. This molecule gave a B-score functional assay in experiment [2] (setting [4]) of -0.153. The molecule also returned a Ranking score in experiment [2] (setting [5]) of 776.511.

In experiment [1] (setting [3]), `CCCCOC(=O)c1ccc(O)cc1` [Butylparaben] registered a B-score binding assay of -0.593. Further, in experiment [2] (setting [4]), the B-score functional assay is 5.239. Besides, the Ranking score in experiment [2] (setting [5]) is 668.543.

Consider `CCCNC(C)C(=O)Nc1c(C)csc1C(=O)OC` (stereo not drawn) [Articaine hydrochloride], for which the B-score binding assay in experiment [1] (setting [9]) stood at 0.267. For the same molecule, in experiment [2] (setting [10]), the Ranking score turned out to be 451.414. The B-score functional assay in experiment [2] (setting [11]) is -1.04.

The molecule `OCCOCCN1CCN(C(c2ccccc2)c2ccc(Cl)cc2)CC1` (stereo not drawn) [Hydroxyzine dihydrochloride] had a B-score binding assay in experiment [1] (setting [9]) of -1.7. Further, the Ranking score in experiment [2] (setting [10]) worked out at 394.018. The same molecule showed a B-score functional assay in experiment [2] (setting [11]) of 1.371.

Molecule `O=C(O)CNC(=O)C(CS)Cc1ccccc1` (stereo not drawn) [Thiorphan] gave a B-score binding assay in experiment [1] (setting [6]) of 2.652. For the same molecule, the B-score functional assay in experiment [2] (setting [7]) is 0.09. Moreover, the Ranking score in experiment [2] (setting [8]) worked out at 959.982.

In experiment [1] (setting [9]), `CCCCCCCCNC(C)C(O)c1ccc(SC(C)C)cc1` (stereo not drawn) [Suloctidil] came in with a B-score binding assay of -2.148. The Ranking score in experiment [2] (setting [10]) was found to be 345.514. Also, the B-score functional assay in experiment [2] (setting [11]) is 4.189.

With `CN1C2CCCC1CC(NC(=O)c1nn(C)c3ccccc13)C2` (stereo not drawn) [Granisetron], the B-score binding assay in experiment [1] (setting [3]) is reported as -0.067. Besides, the B-score functional assay in experiment [2] (setting [4]) is recorded as 0.526. The same molecule registered a Ranking score in experiment [2] (setting [5]) of 726.756.

In experiment [1] (setting [9]), `O=C(O)CCC(=O)c1ccc(-c2ccccc2)cc1` [Fenbufen] came in with a B-score binding assay of -0.209. Besides, the Ranking score in experiment [2] (setting [10]) is given as 326.986. Moreover, in experiment [2] (setting [11]), the B-score functional assay is -1.216.

In turn, `Cc1c(N(C)C)c(=O)n(-c2ccccc2)n1C` [Amidopyrine] registered a B-score binding assay in experiment [1] (setting [9]) of -1.103. In addition, the Ranking score in experiment [2] (setting [10]) was 343.366. Further, the B-score functional assay in experiment [2] (setting [11]) is on record as -0.111.

As for `c1ccc(CC2=NCCN2)cc1` [Tolazoline hydrochloride], the B-score binding assay in experiment [1] (setting [6]) stood at 0.03. The molecule also registered a B-score functional assay in experiment [2] (setting [7]) of 4.096. Further, the Ranking score in experiment [2] (setting [8]) is reported as 929.251.

In experiment [1] (setting [3]), `CCOC(=O)/C=C(C)/C=C/C=C(C)/C=C/c1c(C)cc(OC)c(C)c1C` [Etretinate] gave a B-score binding assay of -0.079. The molecule also registered a B-score functional assay in experiment [2] (setting [4]) of 0.504. For the same molecule, in experiment [2] (setting [5]), the Ranking score stood at 712.48.

`Cc1onc(-c2c(Cl)cccc2Cl)c1C(=O)N[C@@H]1C(=O)N2[C@@H]1SC(C)(C)[C@@H]2C(=O)[O-].O.[Na+]` [Dicloxacillin sodium salt hydrate]: the B-score binding assay in experiment [1] (setting [6]) came to 0.373. This molecule also had a B-score functional assay in experiment [2] (setting [7]) of 0.63. The Ranking score in experiment [2] (setting [8]) came to 908.983.

Consider `CC1(C)S[C@@H]2[C@H](NC(=O)Cc3ccccc3)C(=O)N2[C@H]1C(=O)O` [Benzylpenicillin sodium], for which, in experiment [1] (setting [9]), the B-score binding assay was -1.247. In experiment [2] (setting [10]), the Ranking score came out at 344.346. The same molecule had a B-score functional assay in experiment [2] (setting [11]) of -0.043.

Take `CN(C)CCC(c1ccc(Cl)cc1)c1ccccn1` (stereo not drawn) [Chlorpheniramine maleate]: the B-score binding assay in experiment [1] (setting [6]) was found to be 1.318. Moreover, the B-score functional assay in experiment [2] (setting [7]) was 1.245. Moreover, the Ranking score in experiment [2] (setting [8]) came out at 1106.99.

In experiment [1] (setting [3]), `Nc1cc(C(Cl)=C(Cl)Cl)c(S(N)(=O)=O)cc1S(N)(=O)=O` [Clorsulon] yielded a B-score binding assay of -0.388. The molecule further had a B-score functional assay in experiment [2] (setting [4]) of 0.953. In experiment [2] (setting [5]), the Ranking score was found to be 659.111.

Take `O=[N+]([O-])O[C@H]1CO[C@H]2[C@@H]1OC[C@H]2O[N+](=O)[O-]` [Isosorbide dinitrate]: the B-score binding assay in experiment [1] is listed as 0.166. Also, in experiment [2], the B-score functional assay is listed as 2.183 and the Ranking score came out at 973.944.

In experiment [1] (setting [3]), `CC[C@]12CCCN3CCc4c(n(c5ccccc45)[C@@](O)(C(=O)OC)C1)[C@@H]32` [Vincamine] returned a B-score binding assay of 0.616. Besides, the B-score functional assay in experiment [2] (setting [4]) was -0.257. In addition, the Ranking score in experiment [2] (setting [5]) was determined as 659.7.

For `CN(C)CCOC(=O)COc1ccc(Cl)cc1.Cl` [Meclofenoxate hydrochloride], the B-score binding assay in experiment [1] (setting [9]) was -1.168. In addition, in experiment [2] (setting [10]), the Ranking score is recorded as 355.4. In experiment [2] (setting [11]), the B-score functional assay is given as -0.036.

In the case of `Nc1ncnc2c1ncn2[C@@H]1O[C@H](COP(=O)(O)O)[C@@H](O)[C@H]1O.O` [Adenosine 5'-monophosphate monohydrate], the B-score binding assay in experiment [1] (setting [6]) came to 2.827. This molecule gave a B-score functional assay in experiment [2] (setting [7]) of 0.641. The Ranking score in experiment [2] (setting [8]) is on record as 1091.98.

Turning to `CN(C)c1ccc(O)c2c1C[C@H]1C[C@H]3[C@H](N(C)C)C(O)=C(C(N)=O)C(=O)[C@@]3(O)C(O)=C1C2=O` [Minocycline hydrochloride], in experiment [1] (setting [3]), the B-score binding assay is listed as 0.626. The molecule also yielded a B-score functional assay in experiment [2] of 0.089. The molecule further displayed a Ranking score in experiment [2] (setting [5]) of 838.821.

`C[C@@H]1[C@H](O)[C@@H](C)/C=C/C=C/CC/C=C/C=C/C=C/C=C/C(O[C@H]2O[C@H](C)[C@@H](O)[C@H](N)[C@@H]2O)CC2O[C@](O)(CC(O)C(O)CCC(O)CC(O)CC(O)CC(=O)O[C@H]1C)CC(O)C2C(=O)O` (stereo partly drawn) [Nystatine] gave a B-score binding assay in experiment [1] (setting [3]) of 3.8. In experiment [2] (setting [4]), the B-score functional assay is listed as -0.141. Moreover, in experiment [2] (setting [5]), the Ranking score was found to be 804.798.

On to `Cc1cccc(C)c1N=C1NCCCS1` [Xylazine], for which the B-score binding assay in experiment [1] is given as -0.164. In experiment [2], this molecule had a B-score functional assay of -0.697 and a Ranking score of 404.611.
